Literature values, collected in US8450380B2, “Method for implementing active ingredients in order to protect them and optimize their delivery method” (Coatex S.A.S., priority 2007, dated 2013).

Conditions: general statement

## O=c1c2cc(Cl)ccc2[nH]c2cc3c(=O)c4cc(Cl)ccc4[nH]c3cc12 [Magenta Cinquasia RT-235-D, 2,9 dichloro-5,12 dihydroquino [2,3-b] acridine-7,14 dione]
  Solubility: non-hydrosoluble
